Source: PubChem BioAssay AID248 (DTP/NCI, 2004)
“And” between values parts separate entries of the source, which are not always exact repeats. Equal entries are not always repeated. Inconclusive results and toxic doses are left out.

System: L1210 leukemia ip in BDF1 mice, survival T/C
Test: NCI In Vivo Anticancer Drug Screen. Data for tumor model L1210 Leukemia (intraperitoneal) in B6D2F1 (BDF1) mice
Settings: endpoint: mean survival time, higher = longer survival
Method in brief: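 Mice bearing the transplanted tumor received compound or vehicle. Survival of the treated group was divided by that of the vehicle-treated control group to give the ratio.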

[1] = dose: 100.0 mg/kg/injection, schedule: Q04DX003 (ip), vehicle: saline with Tween-80
[2] = dose: 200.0 mg/kg/injection, schedule: Q04DX003 (ip), vehicle: saline with Tween-80
[3] = dose: 4.0 mg/kg/injection, schedule: Q01DX015 (ip), vehicle: carboxymethylcellulose (CMC)

CCCCCCCCCCNCCCCNCCCCCCCCCC
T/C (dose: 1.56 mg/kg/injection, schedule: Q01DX009 (ip), vehicle: Klucel (hydroxypropylcellulose) (HPC)): 92 % of control | T/C (dose: 3.12 mg/kg/injection, schedule: Q01DX009 (ip), vehicle: Klucel (hydroxypropylcellulose) (HPC)): 87 % of control | T/C (dose: 6.25 mg/kg/injection, schedule: Q01DX009 (ip), vehicle: Klucel (hydroxypropylcellulose) (HPC)): 92 % of control and 93 % of control

Nc1ncnc2c1c(S(=O)(=O)O)cn2C1OC(CO)C(O)C1O (centres undefined)
T/C (dose: 100.0 mg/kg/injection, schedule: Q01DX001 (ip), vehicle: Klucel (hydroxypropylcellulose) (HPC)): 90 % of control | T/C (dose: 200.0 mg/kg/injection, schedule: Q01DX001 (ip), vehicle: Klucel (hydroxypropylcellulose) (HPC)): 93 % of control | T/C (dose: 400.0 mg/kg/injection, schedule: Q01DX001 (ip), vehicle: Klucel (hydroxypropylcellulose) (HPC)): 100 % of control

O=S(=O)(CCCl)c1ccccc1
T/C (dose: 100.0 mg/kg/injection, schedule: Q04DX003 (ip), vehicle: Klucel (hydroxypropylcellulose) (HPC)): 103 % of control | T/C [1]: 92 % of control | T/C (dose: 200.0 mg/kg/injection, schedule: Q04DX003 (ip), vehicle: Klucel (hydroxypropylcellulose) (HPC)): 97 % of control | T/C [2]: 92 % of control | T/C (dose: 400.0 mg/kg/injection, schedule: Q04DX003 (ip), vehicle: Klucel (hydroxypropylcellulose) (HPC)): 94 % of control | T/C (dose: 400.0 mg/kg/injection, schedule: Q04DX003 (ip), vehicle: saline with Tween-80): 97 % of control

CN(C)C(=O)SSC(=S)N(C)C
T/C [3]: 93 % of control | T/C (dose: 8.0 mg/kg/injection, schedule: Q01DX015 (ip), vehicle: carboxymethylcellulose (CMC)): 92 % of control | T/C (dose: 16.0 mg/kg/injection, schedule: Q01DX015 (ip), vehicle: carboxymethylcellulose (CMC)): 106 % of control | T/C (dose: 32.0 mg/kg/injection, schedule: Q01DX015 (ip), vehicle: carboxymethylcellulose (CMC)): 97 % of control and 98 % of control | T/C (dose: 64.0 mg/kg/injection, schedule: Q01DX015 (ip), vehicle: carboxymethylcellulose (CMC)): 98 % of control | T/C (dose: 128.0 mg/kg/injection, schedule: Q01DX015 (ip), vehicle: carboxymethylcellulose (CMC)): 96 % of control

Cc1ccc(NC(=O)c2ccccc2)cc1[As]=[As]c1cc(NC(=O)c2ccccc2)ccc1C (centres undefined)
T/C (dose: 1.0 mg/kg/injection, schedule: Q01DX015 (ip), vehicle: carboxymethylcellulose (CMC)): 90 % of control | T/C (dose: 2.0 mg/kg/injection, schedule: Q01DX015 (ip), vehicle: carboxymethylcellulose (CMC)): 95 % of control | T/C [3]: 101 % of control

COc1ccccc1CN1CCCN(Cc2ccccc2OC)C1c1ccc(N(CCCl)CCCl)cc1
T/C (dose: 50.0 mg/kg/injection, schedule: Q01DX001 (ip), vehicle: carboxymethylcellulose (CMC)): 115 % of control | T/C (dose: 100.0 mg/kg/injection, schedule: Q01DX001 (ip), vehicle: carboxymethylcellulose (CMC)): 104 % of control | T/C (dose: 200.0 mg/kg/injection, schedule: Q01DX001 (ip), vehicle: carboxymethylcellulose (CMC)): 104 % of control | T/C (dose: 400.0 mg/kg/injection, schedule: Q01DX001 (ip), vehicle: carboxymethylcellulose (CMC)): 104 % of control

OC12CC(C(F)(F)F)(C(F)(F)F)OC1(O)CC(C(F)(F)F)(C(F)(F)F)O2 (centres undefined)
T/C [1]: 94 % of control | T/C [2]: 89 % of control

Cc1ccc(NC(=O)c2ccc(C)c([N+](=O)[O-])c2)c(C)c1
T/C (dose: 100.0 mg/kg/injection, schedule: Q01DX009 (sc), vehicle: olive oil, sesame oil, peanut oil): 86 % of control | T/C (dose: 100.0 mg/kg/injection, schedule: Q04DX003 (sc), vehicle: olive oil, sesame oil, peanut oil): 100 % of control | T/C (dose: 200.0 mg/kg/injection, schedule: Q01DX009 (sc), vehicle: olive oil, sesame oil, peanut oil): 94 % of control | T/C (dose: 200.0 mg/kg/injection, schedule: Q04DX003 (sc), vehicle: olive oil, sesame oil, peanut oil): 105 % of control | T/C (dose: 400.0 mg/kg/injection, schedule: Q01DX009 (sc), vehicle: olive oil, sesame oil, peanut oil): 89 % of control | T/C (dose: 400.0 mg/kg/injection, schedule: Q04DX003 (sc), vehicle: olive oil, sesame oil, peanut oil): 97 % of control

CCC1CN2CCc3cc(OC)c(OC)cc3C2CC1CC1c2cc(OC)c(OC)cc2CCN1C(=O)C(Cc1c[nH]c2ccccc12)NC(=O)OC(C)(C)C (centres undefined)
T/C (dose: 4.0 mg/kg/injection, schedule: Q03HX008 (ip), vehicle: saline with Tween-80): 100 % of control | T/C (dose: 4.0 mg/kg/injection, schedule: Q03HX016 (ip), vehicle: saline with Tween-80): 93 % of control | T/C (dose: 4.0 mg/kg/injection, schedule: Q03HX024 (ip), vehicle: saline with Tween-80): 101 % of control | T/C (dose: 8.0 mg/kg/injection, schedule: Q03HX008 (ip), vehicle: saline with Tween-80): 105 % of control | T/C (dose: 8.0 mg/kg/injection, schedule: Q03HX016 (ip), vehicle: saline with Tween-80): 101 % of control | T/C (dose: 8.0 mg/kg/injection, schedule: Q03HX024 (ip), vehicle: saline with Tween-80): 98 % of control | T/C (dose: 16.0 mg/kg/injection, schedule: Q01DX009 (oral), vehicle: saline with Tween-80): 112 % of control | T/C (dose: 16.0 mg/kg/injection, schedule: Q03HX008 (ip), vehicle: saline with Tween-80): 101 % of control | T/C (dose: 16.0 mg/kg/injection, schedule: Q03HX016 (ip), vehicle: saline with Tween-80): 100 % of control | T/C (dose: 16.0 mg/kg/injection, schedule: Q03HX024 (ip), vehicle: saline with Tween-80): 97 % of control | T/C (dose: 32.0 mg/kg/injection, schedule: Q01DX005 (ip), vehicle: saline with Tween-80): 95 % of control | T/C (dose: 32.0 mg/kg/injection, schedule: Q01DX009 (ip), vehicle: saline with Tween-80): 104 % of control | T/C (dose: 32.0 mg/kg/injection, schedule: Q01DX009 (oral), vehicle: saline with Tween-80): 114 % of control | T/C (dose: 32.0 mg/kg/injection, schedule: Q03HX008 (ip), vehicle: saline with Tween-80): 92 % of control | T/C (dose: 32.0 mg/kg/injection, schedule: Q03HX016 (ip), vehicle: saline with Tween-80): 97 % of control | T/C (dose: 32.0 mg/kg/injection, schedule: Q03HX024 (ip), vehicle: saline with Tween-80): 98 % of control | T/C (dose: 32.0 mg/kg/injection, schedule: Q04DX003 (ip), vehicle: saline with Tween-80): 162 % of control | T/C (dose: 37.5 mg/kg/injection, schedule: Q01DX009 (ip), vehicle: saline): 95 % of control | T/C (dose: 64.0 mg/kg/injection, schedule: Q01DX001 (ip), vehicle: saline with Tween-80): 100 % of control | T/C (dose: 64.0 mg/kg/injection, schedule: Q01DX005 (ip), vehicle: saline with Tween-80): 102 % of control | T/C (dose: 64.0 mg/kg/injection, schedule: Q01DX009 (ip), vehicle: saline with Tween-80): 100 % of control | T/C (dose: 64.0 mg/kg/injection, schedule: Q01DX009 (oral), vehicle: saline with Tween-80): 114 % of control | T/C (dose: 64.0 mg/kg/injection, schedule: Q04DX003 (ip), vehicle: saline with Tween-80): 97 % of control | T/C (dose: 64.0 mg/kg/injection, schedule: Q08DX002 (ip), vehicle: saline with Tween-80): 98 % of control | T/C (dose: 75.0 mg/kg/injection, schedule: Q01DX009 (ip), vehicle: saline): 103 % of control | T/C (dose: 89.0 mg/kg/injection, schedule: Q01DX001 (ip), vehicle: saline): 115 % of control | T/C (dose: 128.0 mg/kg/injection, schedule: Q01DX001 (ip), vehicle: saline with Tween-80): 102 % of control | T/C (dose: 128.0 mg/kg/injection, schedule: Q01DX005 (ip), vehicle: saline with Tween-80): 101 % of control | T/C (dose: 128.0 mg/kg/injection, schedule: Q01DX009 (ip), vehicle: saline with Tween-80): 105 % of control | T/C (dose: 128.0 mg/kg/injection, schedule: Q04DX003 (ip), vehicle: saline with Tween-80): 105 % of control | T/C (dose: 128.0 mg/kg/injection, schedule: Q08DX002 (ip), vehicle: saline with Tween-80): 95 % of control | T/C (dose: 256.0 mg/kg/injection, schedule: Q01DX001 (ip), vehicle: saline with Tween-80): 97 % of control | T/C (dose: 256.0 mg/kg/injection, schedule: Q01DX009 (oral), vehicle: saline with Tween-80): 118 % of control | T/C (dose: 256.0 mg/kg/injection, schedule: Q04DX003 (ip), vehicle: saline with Tween-80): 96 % of control | T/C (dose: 256.0 mg/kg/injection, schedule: Q08DX002 (ip), vehicle: saline with Tween-80): 98 % of control | T/C (dose: 300.0 mg/kg/injection, schedule: Q01DX009 (ip), vehicle: saline): 90 % of control | T/C (dose: 512.0 mg/kg/injection, schedule: Q01DX001 (ip), vehicle: saline with Tween-80): 102 % of control | T/C (dose: 512.0 mg/kg/injection, schedule: Q08DX002 (ip), vehicle: saline with Tween-80): 106 % of control

O=C(Cl)c1ccccc1Sc1ccccc1
T/C (dose: 25.0 mg/kg/injection, schedule: Q01DX009 (ip), vehicle: saline with Tween-80): 106 % of control | T/C (dose: 50.0 mg/kg/injection, schedule: Q01DX009 (ip), vehicle: saline with Tween-80): 97 % of control | T/C (dose: 100.0 mg/kg/injection, schedule: Q01DX009 (ip), vehicle: saline with Tween-80): 92 % of control
